Data reported in patent US20180280480A1, “COMPOSITIONS AND PEPTIDES HAVING DUAL GLP-1R AND GLP-2R AGONIST ACTIVITY” (priority 2014, published 2018).
Marks after values point to notes of the source that are not given here.

Key:
[1] = test system: diabetic db/db (BKS.Cg-m+/+Leprdb/J) male mice; experiment: Fed blood glucose and HbA1c in diabetic db/db mice; assay type: in vivo; conditions: for Blood glucose, fed state / HbA1c: Day 56, mean ± S.E.M.
Protocol: (§1) A total of forty-six (46) diabetic db/db (BKS.Cg-m+/+Leprdb/J) male mice, 5 weeks old at arrival, was obtained from Janvier (France). The mice were acclimatized for two weeks in their new environment with free access to normal chow (Altromin 1324, Brogaarden A/S, Gentofte, Denmark) and domestic quality tap water. They were housed in groups of n=2 in a light-, temperature-, and humidity-controlled room (12-hour light: 12-hour dark cycle, lights On/Off at 04.00/16.00 h; 22±1° C.; 50±10% relative humidity). During the habituation period animals was accustomed to the experimental paradigm.
(§2) Baseline, free fed blood glucose samples were obtained bi-weekly prior to study start (blood was collected from the tail vein) in order to screen for the diabetic state. The 40 animals closest to the mean BG/BW value at day −3 were randomized into 4 groups (n=10/group; the remaining 6 animals was be discarded from the main study): Group 1: Vehicle, BID, SC. Group 2: SEQ ID NO 6, 50 nmol/kg, BID, SC. Group 3: SEQ ID NO 6, 250 nmol/kg, BID, SC. […] During day 0-58 of the experiment, animals received a subcutaneous dosing twice daily at 06.00-08.00 hours and again between 02.00-04.00 hours. Dose volume was 5 ml/kg.
(§3) On experimental day 56 an oral glucose tolerance test was performed. Animals were mildly fasted as food was removed 4 hours prior to administration of the glucose bolus. Compounds were administered 45 minutes prior to the OGTT. At t=0, mice received an oral glucose load of 2 g/kg glucose (Glucose 200 mg/ml, Fresenius Kabi, Sweden). Glucose was given as gavage via a gastrically placed tube connected to a syringe ensuring accurate dosing. Blood samples were collected from the tail vein and blood-glucose was measured at time points −60, 0, 15, 30, 60, 120 and 240 minutes after the glucose administration. Samples for measuring HbA1c was taken in parallel with blood glucose at t=−60 minutes. Mice were re-fed after the last blood sampling.

[2] = test system: diabetic db/db (BKS.Cg-m+/+Leprdb/J) male mice; experiment: Intestinal volume and surface area (stereology) in diabetic db/db mice; assay type: in vivo; conditions: for Large intestine surface area / Large intestine volume / Small intestine surface area / Small intestine volume: Day 58, mean ± S.E.M.
Protocol: A total of forty-six (46) diabetic db/db (BKS.Cg-m+/+Leprdb/J) male mice, 5 weeks old at arrival, was obtained from Janvier (France). […] They were housed in groups of n=2 in a light-, temperature-, and humidity-controlled room (12-hour light: 12-hour dark cycle, lights On/Off at 04.00/16.00 h; 22±1° C.; 50±10% relative humidity). During the habituation period animals was accustomed to the experimental paradigm.
Baseline, free fed blood glucose samples were obtained bi-weekly prior to study start (blood was collected from the tail vein) in order to screen for the diabetic state. The 40 animals closest to the mean BG/BW value at day −3 were randomized into 4 groups (n=10/group; the remaining 6 animals was be discarded from the main study): Group 1: Vehicle, BID, SC. […] During day 0-58 of the experiment, animals received a subcutaneous dosing twice daily at 06.00-08.00 hours and again between 02.00-04.00 hours. Dose volume was 5 ml/kg.
At the end of the study period mice were terminated by decapitation under isoflurane anaesthesia. The entire intestine was dissected out and divided into small and large which was then measured in length.

C57BL/6J mice = experiment: GLP1R-GLP2R dual agonist compound study: oral glucose tolerance test; assay type: in vivo
Protocol: On day 7, an oral glucose tolerance test (OGTT) was performed. Animals were mildly fasted as all food was removed 4 hours prior to the oral glucose load. Vehicle (SC) and compounds were administered subcutaneously (SC) 2 hours prior to the OGTT. At t=0 mice received an oral glucose load (2 g/kg; 4 ml/kg; 500 mg/ml, Fresenius Kabi, Sweden). Glucose was given as gavage via a gastrically-placed tube connected to a syringe ensuring accurate dosing. Blood glucose was measured from tail vein blood before glucose (at t=−120 and 0 min, baseline) and after glucose administration at t=15, 30, 60 and 120 min. Blood samples (tail vein) was collected into 10 μl heparinized glass capillary tubes and immediately suspended in buffer (0.5 ml of glucose/lactate system solution (EKF-diagnostics, Germany) and analyzed for glucose on the test day using a BIOSEN c-Line glucose meter (EKF-diagnostics, Germany) according to manufacturer's instructions. Results from the OGTT are listed below in Table 11.

GLP-2R = biological target: T1, GLP-2R (Homo sapiens, UniProt O95838); experiment: GLP2 receptor efficacy assay (in vitro functional screen, Euroscreen or DiscoveRx); conditions: Table 1
T1 sequence (O95838 1-553): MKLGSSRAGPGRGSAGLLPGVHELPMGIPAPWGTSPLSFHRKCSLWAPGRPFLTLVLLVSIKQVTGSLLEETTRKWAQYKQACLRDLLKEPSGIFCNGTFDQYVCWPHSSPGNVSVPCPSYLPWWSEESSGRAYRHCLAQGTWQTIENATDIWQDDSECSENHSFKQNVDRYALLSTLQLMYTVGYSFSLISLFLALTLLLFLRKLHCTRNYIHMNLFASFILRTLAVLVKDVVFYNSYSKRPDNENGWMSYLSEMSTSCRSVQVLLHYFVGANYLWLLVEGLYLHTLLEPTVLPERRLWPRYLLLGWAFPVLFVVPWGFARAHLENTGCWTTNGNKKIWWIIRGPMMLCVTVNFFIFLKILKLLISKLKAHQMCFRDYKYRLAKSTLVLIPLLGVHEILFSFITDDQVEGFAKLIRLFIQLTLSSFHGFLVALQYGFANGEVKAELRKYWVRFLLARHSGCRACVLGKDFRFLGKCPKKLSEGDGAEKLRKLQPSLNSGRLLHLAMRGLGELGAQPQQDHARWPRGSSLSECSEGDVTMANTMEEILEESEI

[3] = test system: diabetic db/db (BKS.Cg-m+/+Leprdb/J) male mice; experiment: Oral glucose tolerance test in diabetic db/db mice; assay type: in vivo; conditions: for Blood glucose during an oral glucose tolerance test. Area under the curve (AUC) −240 to 240 min.: Day 56, mean ± S.E.M.
Protocol: as §1, §2, §3

In the case of “R^1-HGDGSFTSELSTYLDALAARDFIAWLIQTKITDR^2 [SEQ ID NO 6]”, the “effect on fed-state blood glucose, HbA1c and glucose tolerance” value ([1]; 8 weeks of treatment, db/db mice) is reported as “reduction in fed-state blood glucose, HbA1c levels as well as an improving of glucose tolerance in a dose dependent manner”, the “Blood glucose, fed state” value ([1]; 50 nmol/kg BID SC) is reported as 7.2 ± 1.0 mmol/L and the HbA1c ([1]; 50 nmol/kg BID SC) is reported as 5.0 ± 0.2 %. For the same substance, the “Blood glucose, fed state” value ([1]; 250 nmol/kg BID SC) was 5.9 ± 0.4 mmol/L, the HbA1c ([1]; 250 nmol/kg BID SC) was 4.4 ± 0.1 % and the “effect on small intestine volume and surface area” value ([2]; 8 weeks of treatment, 50 and 250 nmol/kg) was “marked increase in small intestine volume as well as surface area”. The “Large intestine surface area” value ([2]; 50 nmol/kg BID SC) was 3.6 ± 1.2 cm^2, the Large intestine volume ([2]; 50 nmol/kg BID SC) was 274.2 ± 7.0 mm^3 and the “Small intestine surface area” value ([2]; 50 nmol/kg BID SC) was 348.9 ± 10.8*** cm^2. The Small intestine volume ([2]; 50 nmol/kg BID SC) was 2097 ± 72.7*** mm^3, the “Large intestine surface area” value ([2]; 250 nmol/kg BID SC) was 18.6 ± 1.9 cm^2 and the Large intestine volume ([2]; 250 nmol/kg BID SC) was 288.2 ± 23.7 mm^3. The “Small intestine surface area” value ([2]; 250 nmol/kg BID SC) was 344.0 ± 20.8*** cm^2, the Small intestine volume ([2]; 250 nmol/kg BID SC) was 2043 ± 62.3*** mm^3 and the “Oral glucose tolerance test AUC, 0-120 min” value (C57BL/6J mice; Day 7, 3.0 mg/kg BID SC, glucose 2 g/kg oral, mean ± S.E.M.) was 523 ± 112 mmol·min/L. The “blood glucose compared to vehicle and teduglutide” value (C57BL/6J mice; dosed twice daily for 7 days) was “significantly reduced fasting blood glucose”, the “ranking of GLP-2 receptor potency” value (GLP-2R) was “most potent GLP-2 receptor agonist” and the “glucose tolerance compared to liraglutide” value ([3]; 250 nmol/kg, P=0.03, Student's t-test) was “even further improved glucose tolerance compared to animals treated with liraglutide”. The “Blood glucose during an oral glucose tolerance test. Area under the curve (AUC) −240 to 240 min.” value ([3]; 50 nmol/kg BID SC) was 3543 ± 469 mmol·min/L and the “Blood glucose during an oral glucose tolerance test. Area under the curve (AUC) −240 to 240 min.” value ([3]; 250 nmol/kg BID SC) was 2472 ± 119 mmol·min/L.
